pIC50: −log10 of the molar value. Non-standard residues stand in square brackets, D forms with d. Residues, ends and D or L forms follow the SMILES beside them. *: point of attachment. Dolaproine = CO[C@@H]([C@@H]1CCCN1)[C@@H](C)C(=O)O; Dil = CC[C@H](C)[C@H](NC)[C@@H](CC(=O)O)OC; X2 = C[C@@H](N*)[C@@H](O)c1ccccc1; NMeV = CN[C@H](C(=O)O)C(C)C
What was measured:
PSMA− PC3 flu cells = assay: In vitro cytotoxicity (XTT cell proliferation assay), PSMA- PC3 flu cells; format: cell-based, human
[1] = In vivo toxicity in healthy mice (weight, survival, histopathology); design: species or system C57BL/6 mice; conditions: healthy C57BL/6 mice, MMAE (free drug) 80 μg/kg IP daily for 30 days
Method: The potential toxicity of SBPD-1 was evaluated in immunocompetent animals. MMAE (80 μg/kg), SBPD-1 (160 μg/kg), and 5% DMSO were administered to healthy C57BL/6 mice (n=5). Animals were monitored for 80 days after initiation of administration. […] Lung, liver, kidneys, salivary and lacrimal glands were removed from all tested animals at Day 80 after initiation of SBPD-1 treatment. […] Peripheral blood also was obtained from mice injected with vehicle, SBPD-1, and healthy untreated animals, and prepared serum for chemistry studies (n=5).
Male C57BL/6 mice were purchased from Jackson Laboratory. Ten-week-old mice were injected with the indicated doses of MMAE (formulated in 5% DMSO), SBPD-1 (formulated in saline) or 5% DMSO intraperitoneally (daily for 30 days, n=5). Animals were monitored daily for weight changes and other abnormalities for 80 days. Animals were euthanized in a CO2 chamber at day 80, and blood, lung, liver, kidney, salivary gland, and lacrimal gland were collected for complete blood counts, blood chemistry, and histopathological analyses. Complete blood counts including white blood cells (WBC), red blood cells (RBC), hemoglobin (HGB), hematocrit (HCT), mean corpuscular volume (MCV), mean corpuscular hemoglobin (MCH), mean corpuscular hemoglobin concentration (MCHC), and platelet (PLT) were measured using scil Vet ABC™ Hematology Analyzer (scil animal care company, Gurnee, IL). Blood chemistry parameters including blood urea nitrogen (BUN), glucose (GLU), Alkaline Phosphatase (ALP), total protein (T-Pro), Alanine aminotransferase (ALT) and Creatinine (Cre) were measured with Spotchem EZ chemistry analyzer (Arkray USA, Edina, MN). Hematoxylin and eosin slides were generated for five organs and examined by certified veterinary pathologist.

PSMA+ PC3 PIP cells = assay: In vitro cytotoxicity (XTT cell proliferation assay), PSMA+ PC3 PIP cells; format: cell-based, human

In the case of CC[C@H](C)[C@@H]([C@@H](CC(=O)N1CCC[C@H]1[C@H](OC)[C@@H](C)C(=O)N[C@H](C)[C@@H](O)c1ccccc1)OC)N(C)C(=O)[C@@H](NC(=O)[C@@H](NC)C(C)C)C(C)C [MMAE, monomethyl auristatin E] (H-[NMeV]V[Dil][Dolaproine]-X2), the pIC50 (PSMA− PC3 flu cells) was 10.40, the “toxicity (weight loss, euthanasia)” value [1] was “severe toxicity” and the pIC50 (PSMA+ PC3 PIP cells) was 10.41.
